# Laboratory results taken from US7049321B2, “Methods and pharmaceutical compositions for treatment of central and peripheral nervous system disorders and compounds useful therefor” (Israel Institute for Biological Research, priority 2002, dated 2006).
# Entries after “also recorded” stand apart in the source; their conditions may differ.
# Legend:
# [1] = system: Primary mixed rat cortical neurons infected with recombinant Semliki Forest virus encoding human APP695 or APP C99 or C111; assay: Aβ levels in vitro in infected cortical neurons; assay type: cell-based
# Protocol: The mechanism of Aβ modulation was tested using C99 (and C111) that are truncated constructs generated from APP. Unlike APP, C99/C111 are direct substrates for γ-secretase. With both constructs it is possible to directly assay for γ-secretase activity, while with APP this is not possible. Both constructs are—as compared to APP—inefficient substrates for α-secretase. Synergistc effects were also evaluated with CDX (methyl-β-cyclodextrin), an agent which extracts cholesterol from the plasma membrane. CDX inhibits also Aβ production. CDX-treated cells were treated in addition to the respective muscarinic agonist for 5 min to reduce the cholesterol content.
# [2] = system: AF64A-injected rats; assay: Morris water maze in AF64A-injected rats; assay type: in vivo, Sprague-Dawley rats
# Protocol: AF64A or saline-injected (6 months old) Sprague-Dawley rats were tested in the Morris Water Maze (MWM) task. The paradigm used assesses spatial learning abilities in a reference memory regimen, and involves training (days 1–4), transfer test (Probe trial—day 4, 3 min following the last training trial) and reversal test (day 5).
# Drugs and PBS were administered once a day for 5 days before starting the behavioral testing, and then for the duration of the 5-day experiment, 30 min before testing.
# The three measures, escape latency, path length and swimming speed were analyzed by MANOVA, followed by simple main effects contrast analysis.
# [3] = system: rat hippocampal neurons; assay: Survival, morphology and apoptosis of hippocampal neurons exposed to Aβ; assay type: cell-based
# Protocol: This study was performed in rat hippocampal primary cell cultures using the methods described by Garrido J L et al. (FASEB J 2002; 16:1982).
# [4] = system: adrenergic, benzodiazepine, dopamine, GABA, glutamate, glycine, histamine, nicotinic, serotonin sites, ChAT, GAD, MAO-A, MAO-B; assay: Binding panel of other receptors and enzymes (AF267B)
# [5] = system: ApoE; assay: ApoE synthesis and secretion in primary type 1 astrocytes; assay type: cell-based, rat
# Protocol: Primary cultures of type 1 astrocytes were derived from the cortex of Sprague Dawley rats. The compounds tested were dissolved in the culture media and added to cells for 24, 48, 72 and 96 hrs. Media was then removed and kept frozen until ApoE protein levels were evaluated by immunoblot analysis as described in Poirier et al Neuroscience 55: 81–90 (1993). Alternatively the methods of Cedazo-Minuez et al [Neurosci 105: 651–661, 2001} may be employed.
# [6] = physchem
# Protocol: This calculation was based on the brain weight (2 gr) vs. total plasma volume (14 ml).
# [7] = system: rabbits with nbm lesions; assay: CSF and cortical Aβ in hypocholinergic (nbm-lesioned) rabbits; assay type: in vivo, New Zealand White rabbits; details: 4 weeks
# Source text: It is known that experimentally-induced cortical cholinergic denervation results in biochemical elevations of cortical Aβ concentrations and in histologic Aβ deposition (Beach et al, Neurosci Lett 283: 9–12, 2000), and that administration of muscarinic Ml-selective agents to normal animals decreases CSF AP concentrations {Beach et al Brain Res. 905: 220–223, 2001}.
# Twenty-eight female New Zealand White rabbits, about 2.5 kg each (young adults) were used. Twenty-one received lesions of the cholinergic nucleus basalis magnocellularis (nbm). The lesion was accomplished with unilateral i.c.v. injections of an immunotoxin consisting of the ribosomal toxin saporin conjugated to the monoclonal antibody ME20.4, which is directed against the low-affinity neurotrophin receptor, p75. The ME20.4 antibody is made against monkey p75 and also recognizes rabbit p75. The dose of immunotoxin was 32.4 μg in 12 μl; this was delivered to the right lateral ventricle 2 mm lateral to the bregma. Seven animals received i.c.v. injections of sterile normal saline (sham lesion). Animals which received the immunotoxin were divided into 3 groups of 7. […] Another group received physostigmine hemisalicylate in normal saline by s.c. osmotic pump at a daily dose of 3 mg/kg. The third group received twice-daily sterile saline s.c. injections. The animals which received a sham lesion were implanted with s.c. osmotic pumps filled with sterile normal saline. Animals were euthanized 4 weeks after surgery. […] Cerebrospinal fluid was taken from the cisterna magna of all animals at the time of sacrifice; the brain was removed and sliced coronally into 0.5 cm slices. […] The other slices were frozen on sheets of dry ice (the other slices are the non-fixed 0.5 cm coronal slices of cerebrum, brainstem and cerebellum).
# [8] = system: Isolated Guinea Pig Right Atrium; assay: Isolated guinea pig right atrium
# Protocol: • 1. Astemizole (human ether-a-go-go related gene (HERG) Channel) Binding Assay. […] Isolated Guinea Pig Right Atrium (atrial fibrillation). […] Effects of AF292 (dose 5 mg/kg orally) on cardiac electrophysiological, cardio-haemodynamic in instrumented, awake dogs. Healthy trained and chronically instrumented female Beagle dogs of varying age and ranging in body weight from 9.4 to 12 kg, were used for recording of the cardiovascular parameters: heart rate, diastolic and systolic blood pressure, pressure rate product, LV dp/dt max, LV dp/dt max/pd, LV dp/dt min, cardiac output, stroke volume, systemic vascular resistance and the ECG parameters (PQ-, QRS-, QT-, QTcBazett-(QTcB), QTcFridericia-(QTcF) and QTcVan de Water-(QTcVdW) interval duration and QT-dispersion. During the last 18 hours prior to the experiments, the dogs had no access to food. Water was available ad libitum. At the beginning of each experiment, control values of the various parameters were recorded for at least 30 min. Thereafter, 5 mg/kg of AF292 (n=4) or the corresponding volume of the solvent (n=4) was administered orally by gavage. The various haemodynamic parameters were recorded continuously for 4 hours thereafter.
# [9] = molecular target: CYP1A2 (Homo sapiens, UniProt P05177); assay: Cytochrome P450 inhibition, CYP1A2; assay type: in vitro ADME; details: up to 10 μM
# Chain of CYP1A2 (P05177 whole entry): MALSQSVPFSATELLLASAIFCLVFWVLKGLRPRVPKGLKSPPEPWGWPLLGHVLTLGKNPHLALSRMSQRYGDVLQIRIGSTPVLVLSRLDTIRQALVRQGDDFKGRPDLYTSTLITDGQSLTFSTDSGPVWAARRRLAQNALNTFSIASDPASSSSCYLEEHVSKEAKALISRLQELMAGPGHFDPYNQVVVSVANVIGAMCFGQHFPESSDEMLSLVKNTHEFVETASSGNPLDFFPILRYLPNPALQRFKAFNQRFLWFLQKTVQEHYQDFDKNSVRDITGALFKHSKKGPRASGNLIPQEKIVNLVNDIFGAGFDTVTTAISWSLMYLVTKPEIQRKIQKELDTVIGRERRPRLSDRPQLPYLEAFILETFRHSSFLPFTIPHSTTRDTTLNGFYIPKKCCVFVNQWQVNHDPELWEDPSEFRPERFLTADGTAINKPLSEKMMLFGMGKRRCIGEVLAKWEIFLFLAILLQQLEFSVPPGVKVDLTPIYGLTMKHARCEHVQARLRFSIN
# Protocol: Cytochrome P450 activity can be an indicator for potential drug-drug interactions. AF292 was evaluated in a microtiter plate assay for P450 inhibition.
# [10] = molecular target: M3 (human) (Homo sapiens, UniProt P20309); assay: PI hydrolysis in cells transfected with human M3; assay type: cell-based; parameters: expressed in transfected cells
# Chain of M3 (human) (P20309 whole entry): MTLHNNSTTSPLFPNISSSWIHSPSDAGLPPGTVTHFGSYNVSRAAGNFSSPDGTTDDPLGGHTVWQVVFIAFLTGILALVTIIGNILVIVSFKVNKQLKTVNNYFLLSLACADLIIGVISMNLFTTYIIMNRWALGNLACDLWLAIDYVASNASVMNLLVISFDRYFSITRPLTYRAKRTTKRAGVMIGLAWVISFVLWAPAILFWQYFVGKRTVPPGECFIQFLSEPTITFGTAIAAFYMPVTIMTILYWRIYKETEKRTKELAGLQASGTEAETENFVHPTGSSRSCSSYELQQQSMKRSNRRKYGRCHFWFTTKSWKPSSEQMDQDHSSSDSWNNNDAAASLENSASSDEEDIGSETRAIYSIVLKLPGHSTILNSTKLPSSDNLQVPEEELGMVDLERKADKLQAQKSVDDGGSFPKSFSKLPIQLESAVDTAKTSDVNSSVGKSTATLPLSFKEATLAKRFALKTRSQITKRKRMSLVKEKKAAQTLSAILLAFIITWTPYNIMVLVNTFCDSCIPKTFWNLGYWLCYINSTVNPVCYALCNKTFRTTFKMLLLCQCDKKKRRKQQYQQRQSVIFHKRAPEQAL
# [11] = molecular target: M2 (human) (Homo sapiens, UniProt P08172); assay: Binding study, M2 (human); details: 10 μm
# Chain of M2 (human) (P08172 whole entry): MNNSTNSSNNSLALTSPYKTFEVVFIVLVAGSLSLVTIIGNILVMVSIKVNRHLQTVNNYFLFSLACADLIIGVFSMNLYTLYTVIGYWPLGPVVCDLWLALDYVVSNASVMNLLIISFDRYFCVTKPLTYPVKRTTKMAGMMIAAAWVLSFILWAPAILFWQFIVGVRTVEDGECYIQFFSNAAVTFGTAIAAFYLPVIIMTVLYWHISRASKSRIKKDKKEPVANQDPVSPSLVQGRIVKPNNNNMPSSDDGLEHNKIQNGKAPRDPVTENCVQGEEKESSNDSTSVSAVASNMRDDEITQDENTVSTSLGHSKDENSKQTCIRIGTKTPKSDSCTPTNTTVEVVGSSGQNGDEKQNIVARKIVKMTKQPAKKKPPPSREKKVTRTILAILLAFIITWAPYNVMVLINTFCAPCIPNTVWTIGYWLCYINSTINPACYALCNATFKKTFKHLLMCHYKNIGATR
structure (smiles),measurement,setting,value
"CC[C@@H]1SC2(CCN(C)CC2)NC1=O [AF267B, (S)-2-ethyl-8-methyl-1-thia-4,8-diaza-spiro[4.5]decan-3-one]","Active concentration range, decrease of Aβ",[1],active in the μM range
same,Potency in decreasing Aβ levels relative to AF150(S),[1],at least 5 fold
same,Reduction of release of Aβ-like fragments (3–4 Kda),[1],approximately 50%
same,γ secretase activity reduction,[1],50%
same,p3 fragment,[1]; 1 mM,complete loss
same,Decrease of Aβ together with CDX,"[1]; with CDX (5 mM), to undetectable Aβ levels",synergistic effect
same,Reversal test,[2]; 1 mg/kg,tendency for improvement
same,"Training, escape latency",[2]; 1 mg/kg,tendency for improvement
same,Reversal test,[2]; 3 mg/kg,tendency for impairment
same,Training performance,[2]; 3 mg/kg,tended to impair performance
same,Learning (training),"[2]; 0.3, 1, 3 mg/kg po",no significant effect on learning
same,"Probe trial, spatial bias (escape latency)",[2]; all doses,complete spatial bias
same,Protection of hippocampal neurons from Aβ1–40,"[3]; 10 μM, Aβ1–40 (5 μM)",> 90%
same,Aβ1–40-induced apotosis,"[3]; 10 μM, Aβ1–40 (5 μm)",to the control level
same,"Survival and morphology of hippocampal neurons, compound alone",[3]; 0.5–50 μM,does not affect the survival and morphology
same,Neurites after Aβ1–40 (immunofluorescence),[3]; Aβ1–40 (5 μM),protected the neurons
same,Binding to panel,[4],no binding at all
same,inhibition at 0.0001 µM,"[5]; Rattus norvegicus, Astrocyte, at 0.1 nM, read-out: Inhibition of ApoE production",60 to 80%
same,ApoE production,[5]; up to 96 hrs,inhibits the production of ApoE
same,pKa,[6],7.8
same,CSF Aβ (4 kDa band),[7]; 1 mg/kg s.c. twice daily,noticeable decrease
same,CSF sAPPα band intensity,[7]; 1 mg/kg s.c. twice daily,no significant difference
same,"Histologic Aβ deposition, % of the lesioned, untreated group",[7],12%
"CC[C@@H]1SC2(CCNCC2)NC1=O [AF292, (S)-2-Ethyl-1-thia-4,8-diaza-spiro[4.5]decan-3-one]",Contractile force,[8],no significant effect on contractile force
same,Contractile rate,[8],tended to slightly reduce the contractile rate
same,Inhibition of CYP1A2,[9],did not induce significant inhibition
same,"PI turnover vs. carbachol, M3",[10]; human M3,"No activity; also recorded: PI., AA: M3 mAChR: Not active as agonist"
same,Kb,"[10]; read-out: pKb, M3 antagonist (converted)",660 nM
same,"Binding, %",[11],61%
